According to US11974976B2, “Animal feeds and feed premixes containing betaine hydrochloride and a phytase” (Rural Chemical Industries (AUST) PTY LTD, priority 2013, dated 2024):
Where a name gives a salt, the structure may show the parent alone. Marks after values point to notes of the source that are not given here.

How the values were obtained:
male Ross 308 chicks [1] = experiment: Mortality/cull rates to 37 days post-hatch; settings: phytase 500 FTU/kg, betaine 2.75 g/kg
Description: The composition and nutrient specifications of the three basal starter (1-16 days post-hatch) and finisher (17-37 days post-hatch) diets are shown in Table 1. An NSP-degrading enzyme (Econase XT) was included across all the wheat-based diets to reflect standard practice and the finisher diets contained 20 g/kg Celite as an acid insoluble ash dietary marker. The starter diets were fed as mash, while the finisher diets were steam-pelleted at a conditioning temperature of 85° C. The NC1 diets were the ‘phytase-modified’ diets with formulated with reductions of 1.4 g/kg Ca and 1.5 g/kg P in the starter diets, which mainly stemmed from the elimination of dicalcium phosphate. The corresponding reductions in the finisher diets were 1.2 g/kg Ca and 1.4/kg P. The NC2 diets were the ‘betaine-modified’ diets in which energy density, methionine and choline levels were reduced mainly by lower inclusion levels of canola oil and synthetic methionine and the elimination of choline chloride relative to the PC diets. The energy densities were reduced from 12.55 to 12.24 MJ/kg in the starter diets and from 12.97 to 12.66 MJ/kg in the finisher diets. Methionine levels were reduced from 4.44 to 3.19 g/kg in the starter diets and from 4.18 to 2.93 g/kg in the finisher diets. Exogenous phytase (Quantum® Blue; AB Vista) was included in the relevant diets at 100 g per tonne or 500 FTU/kg phytase activity and, similarly, betaine HCl (Hi Beta″, 970 g/kg betaine hydrochloride; Rural Chemical Industries) was included in the diets at 2.75 g/kg.
The parameters evaluated included growth performance (weight gains, feed intakes, feed conversion ratios; FCR) from 1 to 16, 17 to 37 and 1 to 37 days post-hatch, 1 to 37 days weight gain-corrected FCR, mortality/cull rates, percentage toe ash, nitrogen (N) excretion and nutrient utilisation. Nutrient utilisation included apparent metabolisable energy (AME), expressed as both MJ/kg and MJ/day, N retention and N-corrected AME (AMEn). Also, breast weights in absolute and relative (% yield) terms, abdominal fat pad weights and pH of gizzard contents were determined. However, for reasons of practical expediency, absolute breast weights were determined on a ‘bone-in’ basis from birds that had not been de-feathered and this approach inflates both the absolute weight and yield; nevertheless, the data remains indicative. The experimental data was obtained and calculated via standard procedures followed by the Poultry Research Foundation. While the various procedures are not detailed in this report the majority of them have been described in detail (Selle et al., 2003b) previously.
The experimental data was statistically analysed as a 3×2×2 factorial array of dietary treatments. […]

male Ross 308 chicks [2] = experiment: Nutrient utilisation (AME, N retention, N-corrected AME); type: in vivo, broiler chicks; settings: for Increase in AMEn on addition to diet: diet type x betaine HCl interaction; for AME / AME (energy intake) / AMEn / N retention: phytase 500 FTU/kg, betaine 2.75 g/kg
Text: Energy that is not metabolisable is ‘excreted energy’. Another way of defining ‘metabolisable energy’ is to refer to an ‘apparent metabolisable energy value’ or ‘AME value’. An ‘AME value’ is simply the gross energy of the feed consumed minus the gross energy contained in the faeces, urine, and gaseous products of digestion.

[3] = main effect across diets, hydrochloride
[4] = main effect across diets, listed as betaine, hydrochloride

C[N+](C)(C)CC(=O)O [Betaine, betaine hydrochloride]
Mortality and cull rates (male Ross 308 chicks [1]; NC1 diets): 4.18% | Mortality and cull rates (male Ross 308 chicks [1]; NC2 diets): 6.25% | Mortality and cull rates (male Ross 308 chicks [1]; PC diets): 4.18% | Mortality and cull rates (male Ross 308 chicks [1]; main effect across diets): 4.17% | AME, diet type x betaine interaction mean (male Ross 308 chicks [2]; NC1 diets): 13.10 mJ/kg | AMEn, diet type x betaine HCl interaction mean (male Ross 308 chicks [2]; NC1 diets): 11.36 mJ/kg | Increase in AMEn on addition to diet (male Ross 308 chicks [2]; NC1 diets): 1.01 mJ | Increase in AME on addition to diet (male Ross 308 chicks [2]; NC1 diets, diet type x betaine interaction): 0.78 mJ | Increase in AME relative to control diet (male Ross 308 chicks [2]; NC1 diets, individual addition): 0.44 mJ | AME (male Ross 308 chicks [2]; NC1 diets): 12.77 MJ/kg DM | AME (energy intake) (male Ross 308 chicks [2]; NC1 diets): 1.868 mJ/day | AMEn (male Ross 308 chicks [2]; NC1 diets): 11.25 MJ/kg DM | N retention (male Ross 308 chicks [2]; NC1 diets): 52.14% | Increase in AMEn on addition to diet (male Ross 308 chicks [2]; NC2 diets): 0.17 mJ | Decrease in AME on addition to diet (male Ross 308 chicks [2]; NC2 diets, diet type x betaine interaction): 0.08 mJ | AME (male Ross 308 chicks [2]; NC2 diets): 12.86 MJ/kg DM | AME (energy intake) (male Ross 308 chicks [2]; NC2 diets): 2.061 mJ/day | AMEn (male Ross 308 chicks [2]; NC2 diets): 11.43 MJ/kg DM | N retention (male Ross 308 chicks [2]; NC2 diets): 49.25% | Increase in AMEn on addition to diet (male Ross 308 chicks [2]; PC diets): 0.23 mJ | Increase in AME on addition to diet (male Ross 308 chicks [2]; PC diets, diet type x betaine interaction): 0.20 mJ | AME (male Ross 308 chicks [2]; PC diets): 13.29 MJ/kg DM | AME (energy intake) (male Ross 308 chicks [2]; PC diets): 2.077 mJ/day | AMEn (male Ross 308 chicks [2]; PC diets): 11.69 MJ/kg DM | N retention (male Ross 308 chicks [2]; PC diets): 52.05% | AME (energy intake), phytase x betaine interaction mean (male Ross 308 chicks [2]; across diet types): 2.002 mJ/day | AMEn, phytase x betaine HCl interaction mean (male Ross 308 chicks [2]; across diet types): 11.46 mJ/kg | Increase in AMEn by betaine HCl (male Ross 308 chicks [2]; in the absence of phytase): 0.20 mJ | Decrease in AME on betaine addition (male Ross 308 chicks [2]; in the absence of phytase, across diet types): 0.08 mJ | Increase in AMEn by betaine HCl (male Ross 308 chicks [2]; in the presence of phytase): 0.74 mJ | Increase in AME on betaine addition (male Ross 308 chicks [2]; in the presence of phytase, across diet types): 0.67 mJ | Increase in AME (male Ross 308 chicks [2]; main effect): 0.30 mJ/kg | N retention (male Ross 308 chicks [2]; main effect across diets): 52.02% | AME (male Ross 308 chicks [2]; [3]): 13.33^b MJ/kg DM | AME (energy intake) (male Ross 308 chicks [2]; [3]): 2.126 mJ/day | AMEn (male Ross 308 chicks [2]; [3]): 11.79^b MJ/kg DM | AMEn (male Ross 308 chicks [2]; main effect across diets, listed as betaine HCl, hydrochloride): 11.79 MJ/kg DM | AME (male Ross 308 chicks [2]; [4]): 13.33 MJ/kg DM | AME (energy intake) (male Ross 308 chicks [2]; [4]): did not influence
